Test results from article PMC9609996, “SAR Study and Molecular Mechanism Investigation of Novel Naphthoquinone-furan-2-cyanoacryloyl Hybrids with Antitumor Activity” (Pharmaceutics, 2022).

Tests used:
[1] = test system: HeLa cells; assay: Annexin V-FITC/PI apoptosis assay; assay type: cell-based, human; settings: 12 μM
Source text: Apoptosis in cancer cells could be caused by the generation of intracellular ROS [31, 32, 33]. Three methods were utilized to assess the effect of compound 5c on the apoptosis of HeLa cells. First, Hoechst 33342 was utilized to stain the HeLa cells that were pretreated with different concentrations of compound 5c. Then, the cells were observed under a fluorescence microscope. […] Second, an annexin V-FITC/PI double staining method was used to quantitatively detect the effect of compound 5c on cell apoptosis. A quantitative analysis was performed using a flow cytometry analysis. […] Third, the levels of Bcl-xl family proteins, well-known as apoptosis-related proteins, were determined by Western blotting analysis.
For the cell cycle analysis, HeLa cells seeded in a 6-well plate (3 × 10^5 per well) were incubated with different concentrations of compound 5c or 0.1% DMSO for 24 h. Then, the cells were digested with 0.25% trypsin (without EDTA) and were washed twice with PBS, fixed in 70% ethanol overnight, and stained with PI ([…], Sigma) plus 0.2 mg/mL of DNase-free RNase A (Qiagen) for 20 minutes at room temperature. For the annexin V apoptosis assay, HeLa cells seeded in a 6-well plate (3 × 10^5 per well) were incubated with different concentrations of compound 5c or 0.1% DMSO for 24 h. Then, the cells were digested with 0.25% trypsin (without EDTA) and were washed twice with PBS. […]

[2] = test system: L02 cells; assay: CCK-8 assay on normal cells, L02; assay type: cell-based; settings: L02 human normal hepatocytes, 48 h, mean ± SD
Method: (§1) Human cervical cancer HeLa, human prostate cancer PC3, human colonic carcinoma HCT116, human lung carcinoma A549, human breast cancer MDA-MB-231, mouse melanoma B16, human ovarian cancer SKOV3, human hepatoma Hep3B, and human liver L02 cells were purchased from the Cell Bank of Shanghai Institute of Biochemistry and Cell Biology, Chinese Academy of Sciences (Shanghai, China). The HeLa, A549, B16, PC3, MDA-MB-231, HCT116, and L02 cells were cultured in Dulbecco’s modified Eagle medium (DMEM, Gibco Inc.; Gaithersburg, MD, USA). All cultures were supplied with 10% fetal bovine serum (FBS; YHSM, Beijing, China), 100 IU/mL of penicillin, and 100 μg/mL of streptomycin, and cells were incubated at 37 °C in an atmosphere of 5% CO2.
(§2) A CCK-8 kit (MCE, USA) was used to perform a CCK-8 assay. Cells were plated and grown in the 96-well plates for the indicated period (48 h) in the incubator, followed by an incubation with the CCK-8 solutions for 1–4 h. Subsequently, the absorbance (450 nm) was measured by a microplate reader. The median inhibitory concentration (IC50) was determined from the dose–response curve. Experiments were performed in a triplicate.

[3] = test system: PC3; assay: CCK-8 anti-proliferation assay, PC3; assay type: cell-based, human; settings: mean ± SD; for IC50: 48 h
Method: as §1, §2

[4] = test system: AKT phosphorylation in HeLa cells; assay: Western blot, AKT phosphorylation; assay type: cell-based, human; settings: 6 h interval
Method: Protein levels were determined by the standard Western blot assay. […] Cells harvested with trypsin were treated with 1× RIPA lysis buffer (50 mM Tris-HCl, pH 7.4, 150 mM NaCl, 0.25% deoxycholic acid, 1% NP-40, 1 mM ethylenediaminetetraacetate (EDTA), and protease inhibitor PMSF (Solarbio, Beijing, China) to extract the total proteins. Then, an aliquot of proteins from the total cell lysates (4–40 μg/lane) was separated using sodium dodecyl sulfate (8, 10, or 12%) polyacrylamide gel electrophoresis (BioRad Laboratories, Hercules, CA, USA). The aliquot was wet-transferred to a PVDF membrane (BioRad Laboratories, Hercules, CA, USA), blotted with primary antibodies (purchased from Cell Signaling Technology, Danvers, MA, USA) specific for the STAT3 (#12640), p-STAT3 (#9145), AKT (#4691), p-AKT (#4060), Bax (#5023), Bcl-xl (#2764), secondary isotype-specific antibodies (#7074) and glyceraldehyde-3-phosphate dehydro-genase (GAPDH, #2118) as the internal standard overnight; then, they were probed with secondary isotype-specific antibodies for another 2 h at 37 °C. The bound immuno-complexes were detected using a ChemiDOC XRS+ system (BioRad Laboratories, Hercules, CA, USA).

[5] = test system: Bcl-xl in HeLa cells; assay: Western blot, Bcl-xl; assay type: cell-based, human; settings: 6–12 μM, 24 h
Method: Protein levels were determined by the standard Western blot assay. HeLa cells were incubated with different concentrations of compound 5c or 0.1% DMSO for 24 h. Cells harvested with trypsin were treated with 1× RIPA lysis buffer (50 mM Tris-HCl, pH 7.4, 150 mM NaCl, 0.25% deoxycholic acid, 1% NP-40, 1 mM ethylenediaminetetraacetate (EDTA), and protease inhibitor PMSF (Solarbio, Beijing, China) to extract the total proteins. Then, an aliquot of proteins from the total cell lysates (4–40 μg/lane) was separated using sodium dodecyl sulfate (8, 10, or 12%) polyacrylamide gel electrophoresis (BioRad Laboratories, Hercules, CA, USA). The aliquot was wet-transferred to a PVDF membrane (BioRad Laboratories, Hercules, CA, USA), blotted with primary antibodies (purchased from Cell Signaling Technology, Danvers, MA, USA) specific for the STAT3 (#12640), p-STAT3 (#9145), AKT (#4691), p-AKT (#4060), Bax (#5023), Bcl-xl (#2764), secondary isotype-specific antibodies (#7074) and glyceraldehyde-3-phosphate dehydro-genase (GAPDH, #2118) as the internal standard overnight; then, they were probed with secondary isotype-specific antibodies for another 2 h at 37 °C. The bound immuno-complexes were detected using a ChemiDOC XRS+ system (BioRad Laboratories, Hercules, CA, USA).

## N#C/C(=C\c1ccc(C2=CC(=O)c3ccccc3C2=O)o1)C(=O)NCCN1CCOCC1 [Compound 5c, (E)-2-cyano-3-(5-(1,4-dioxo-1,4-dihydronaphthalen-2-yl)furan-2-yl)-N-(2-morpholinoethyl)acrylamide]
[1]
  percentage of apoptotic cells: 46.70%
[2]
  IC50: 51.7 ± 0.1 µM
[3]
  IC50: 20.5 ± 0.05 µM
[3]; Homo sapiens, PC-3, 20 μM, read-out: Inhibition Rate (%) at 20 μM PC3
  inhibition at 20 µM: 25.54 ± 0.06%
[3]; Homo sapiens, PC-3, 48 h
  IC50: > 20.5 µM
[4]
  phosphorylation level of AKT: effectively inhibited
[5]
  total Bcl-xl levels: significantly decreased
